# Experimental data published in ChEMBL document CHEMBL4334516, “Kinase Chemodiversity from the Arctic: The Breitfussins” (J Med Chem, 2019).
# Assays:
# [1] = biological target: Mitogen-activated protein kinase kinase kinase 9 (Homo sapiens, UniProt P80192); experiment: Inhibition of MLK1 (unknown origin) assessed as residual enzyme activity at 5 uM by [33P]-ATP filter binding kinase assay relative to control
# MCF7 = experiment: Cytotoxicity in human MCF7 cells assessed as reduction in cell viability by MTS assay; assay type: functional, cell-based; conditions: TDE = time-dependent effect
# [2] = Toxicity in zebrafish embryos assessed as induction of heart edema by measuring unaffected embryos level at 0.1 uM after 72 hrs (reference value: 100%); assay type: tissue-based, Danio rerio; conditions: in vivo
# [3] = Toxicity in zebrafish embryos assessed as induction of scoliosis by measuring unaffected embryos level at 1.4 uM after 72 hrs (reference value: 100%); design: species or system Danio rerio; conditions: in vivo
# [4] = Cytotoxicity in human RD-ES cells assessed as reduction in cell viability incubated for 72 hrs by SRB assay
# [5] = Intrinsic clearance in human liver microsomes at 3 uM measured up to 50 mins by LC-MS analysis; assay type: ADME, Microsome; conditions: read-out: CLH
# [6] = Intrinsic clearance in mouse liver microsomes at 3 uM measured up to 50 mins by LC-MS analysis; assay type: ADME, Microsome; conditions: read-out: CLH
# [7] = biological target: Serine/threonine-protein kinase pim-1 (Homo sapiens, UniProt P11309); experiment: Inhibition of PIM1 (unknown origin) assessed as residual enzyme activity at 50 uM by [33P]-ATP filter binding kinase assay relative to control
# Serine/threonine-protein kinase pim-1, sequence (P11309 whole entry, looked up): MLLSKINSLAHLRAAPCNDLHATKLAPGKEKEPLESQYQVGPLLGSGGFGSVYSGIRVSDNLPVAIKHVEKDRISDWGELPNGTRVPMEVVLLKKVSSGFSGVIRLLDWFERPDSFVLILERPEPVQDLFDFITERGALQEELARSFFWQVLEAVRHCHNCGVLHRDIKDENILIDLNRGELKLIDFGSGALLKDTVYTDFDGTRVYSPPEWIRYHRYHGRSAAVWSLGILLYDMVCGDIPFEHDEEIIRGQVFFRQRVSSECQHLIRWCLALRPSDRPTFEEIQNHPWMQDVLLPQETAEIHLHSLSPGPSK
# [8] = Toxicity in zebrafish embryos assessed as induction of necrosis by measuring unaffected embryos level at 14 uM after 72 hrs (reference value: 100%); design: species or system Danio rerio; conditions: in vivo
# [9] = biological target: T1, Mitogen-activated protein kinase kinase kinase 7 (Homo sapiens) (UniProt O43318); experiment: Inhibition of TAK1 (unknown origin) assessed as residual enzyme activity at 50 uM by [33P]-ATP filter binding kinase assay relative to control
# T1 sequence (whole entry): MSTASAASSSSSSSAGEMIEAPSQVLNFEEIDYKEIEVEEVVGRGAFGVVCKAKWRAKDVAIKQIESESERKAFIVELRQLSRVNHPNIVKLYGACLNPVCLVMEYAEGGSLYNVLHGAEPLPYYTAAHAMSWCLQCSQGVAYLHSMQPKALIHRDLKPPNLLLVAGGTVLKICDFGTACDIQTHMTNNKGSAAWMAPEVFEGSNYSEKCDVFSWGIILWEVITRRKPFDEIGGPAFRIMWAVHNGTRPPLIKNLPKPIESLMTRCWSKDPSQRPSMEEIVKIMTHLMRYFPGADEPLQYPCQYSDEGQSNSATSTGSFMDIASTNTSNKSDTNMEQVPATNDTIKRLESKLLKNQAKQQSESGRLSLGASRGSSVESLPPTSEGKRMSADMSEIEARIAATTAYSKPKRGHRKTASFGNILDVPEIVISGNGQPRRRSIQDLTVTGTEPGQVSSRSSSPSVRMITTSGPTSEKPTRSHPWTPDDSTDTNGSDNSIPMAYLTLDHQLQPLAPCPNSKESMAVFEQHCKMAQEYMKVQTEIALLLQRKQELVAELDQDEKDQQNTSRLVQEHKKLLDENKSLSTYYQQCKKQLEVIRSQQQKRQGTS
# [10] = biological target: T2, Mitogen-activated protein kinase kinase kinase kinase 2 (Homo sapiens) (UniProt Q12851); experiment: Inhibition of GCK (unknown origin) assessed as residual enzyme activity at 50 uM by [33P]-ATP filter binding kinase assay relative to control
# T2 sequence (whole entry): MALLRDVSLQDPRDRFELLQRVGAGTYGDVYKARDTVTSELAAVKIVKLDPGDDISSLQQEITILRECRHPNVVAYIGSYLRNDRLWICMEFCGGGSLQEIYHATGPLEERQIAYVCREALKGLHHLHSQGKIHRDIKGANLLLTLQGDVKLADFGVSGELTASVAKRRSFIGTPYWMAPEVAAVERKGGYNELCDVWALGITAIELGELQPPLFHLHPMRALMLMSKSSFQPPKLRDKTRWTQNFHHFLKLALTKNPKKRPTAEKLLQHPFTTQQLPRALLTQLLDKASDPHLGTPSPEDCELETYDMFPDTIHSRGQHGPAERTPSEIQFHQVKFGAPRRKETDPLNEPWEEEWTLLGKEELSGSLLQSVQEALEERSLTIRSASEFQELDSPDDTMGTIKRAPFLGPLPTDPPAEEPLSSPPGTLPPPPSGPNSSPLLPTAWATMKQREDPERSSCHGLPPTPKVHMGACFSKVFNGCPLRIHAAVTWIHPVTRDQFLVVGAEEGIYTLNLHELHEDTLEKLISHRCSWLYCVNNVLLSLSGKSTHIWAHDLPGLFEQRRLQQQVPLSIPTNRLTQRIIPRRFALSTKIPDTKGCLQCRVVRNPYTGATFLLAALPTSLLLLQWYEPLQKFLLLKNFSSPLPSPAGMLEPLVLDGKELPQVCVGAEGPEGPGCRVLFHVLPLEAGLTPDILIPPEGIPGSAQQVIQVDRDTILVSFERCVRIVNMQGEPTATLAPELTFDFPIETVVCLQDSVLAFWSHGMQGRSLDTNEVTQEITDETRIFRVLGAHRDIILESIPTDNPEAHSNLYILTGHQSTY
# MDA-MB-231 = experiment: Cytotoxicity in human MDA-MB-231 cells assessed as reduction in cell viability incubated for 72 hrs by SRB assay; conditions: MDA-MB-231, 72 h
# [11] = biological target: Receptor-type tyrosine-protein kinase FLT3 (Homo sapiens, UniProt P36888, N841I); experiment: Binding affinity to human partial length FLT3 N841I mutant (V592 to Y969 residues) expressed in bacterial expression system by active-site directed competition binding assay based Kinomescan method
# [12] = biological target: Serine/threonine-protein kinase pim-3 (Homo sapiens, UniProt Q86V86); experiment: Binding affinity to wild-type human partial length PIM3 (G16 to A317 residues) expressed in bacterial expression system by active-site directed competition binding assay based Kinomescan method
# [13] = biological target: Serine/threonine-protein kinase pim-2 (Homo sapiens, UniProt Q9P1W9); experiment: Binding affinity to wild-type human partial length PIM2 (M1 to E291 residues) expressed in bacterial expression system assessed as residual binding level at 10 uM by active-site directed competition binding assay based Kinomescan method relative to control
# Serine/threonine-protein kinase pim-2, sequence (Q9P1W9 whole entry, looked up, the tested form may be a part): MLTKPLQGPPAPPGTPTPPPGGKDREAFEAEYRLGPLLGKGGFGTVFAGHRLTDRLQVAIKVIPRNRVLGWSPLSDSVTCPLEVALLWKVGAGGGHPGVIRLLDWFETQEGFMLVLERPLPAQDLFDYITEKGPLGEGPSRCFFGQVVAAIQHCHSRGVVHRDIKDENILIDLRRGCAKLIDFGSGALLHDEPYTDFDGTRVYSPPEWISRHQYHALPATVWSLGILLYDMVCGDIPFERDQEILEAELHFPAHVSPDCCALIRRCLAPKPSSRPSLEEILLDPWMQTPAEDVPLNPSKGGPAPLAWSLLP
# JIMT-1 = experiment: Cytotoxicity in human JIMT1 cells assessed as reduction in cell viability incubated for 72 hrs by SRB assay; conditions: JIMT-1, 72 h
# [14] = Toxicity in zebrafish embryos assessed as survival at 1.4 uM after 72 hrs (reference value: 95%); design: species or system Danio rerio; conditions: in vivo
# [15] = biological target: Phosphatidylinositol 4-kinase beta (Homo sapiens, UniProt Q9UBF8); experiment: Binding affinity to wild-type human full length PIK4CB (M1 to M828 residues) expressed in mammalian expression system by active-site directed competition binding assay based Kinomescan method
# Phosphatidylinositol 4-kinase beta, sequence (Q9UBF8 whole entry, the tested form may be a part): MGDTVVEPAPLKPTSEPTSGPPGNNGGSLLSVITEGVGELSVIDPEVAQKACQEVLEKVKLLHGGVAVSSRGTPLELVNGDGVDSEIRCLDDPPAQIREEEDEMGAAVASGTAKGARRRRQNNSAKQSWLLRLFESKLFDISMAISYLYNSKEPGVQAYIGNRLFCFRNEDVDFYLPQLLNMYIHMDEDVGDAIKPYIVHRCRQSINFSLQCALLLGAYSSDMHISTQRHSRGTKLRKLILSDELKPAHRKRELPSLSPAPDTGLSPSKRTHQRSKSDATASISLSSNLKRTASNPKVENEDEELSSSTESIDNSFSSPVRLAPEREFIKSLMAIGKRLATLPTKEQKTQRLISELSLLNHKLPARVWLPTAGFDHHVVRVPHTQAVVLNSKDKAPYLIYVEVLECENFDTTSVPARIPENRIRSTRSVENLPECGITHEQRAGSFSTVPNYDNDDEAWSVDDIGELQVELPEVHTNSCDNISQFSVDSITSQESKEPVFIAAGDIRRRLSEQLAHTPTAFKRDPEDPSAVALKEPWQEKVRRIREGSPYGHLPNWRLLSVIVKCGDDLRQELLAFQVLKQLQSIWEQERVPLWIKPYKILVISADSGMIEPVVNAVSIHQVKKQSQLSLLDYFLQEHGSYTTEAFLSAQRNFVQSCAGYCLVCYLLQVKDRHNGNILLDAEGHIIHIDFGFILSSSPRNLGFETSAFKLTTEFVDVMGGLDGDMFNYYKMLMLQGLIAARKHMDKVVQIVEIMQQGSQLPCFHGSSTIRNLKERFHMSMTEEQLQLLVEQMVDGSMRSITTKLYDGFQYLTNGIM
# [16] = biological target: Testis-specific serine/threonine-protein kinase 1 (Homo sapiens) (UniProt Q9BXA7); experiment: Inhibition of TSSK1 (unknown origin) assessed as residual enzyme activity at 50 uM by [33P]-ATP filter binding kinase assay relative to control
# Testis-specific serine/threonine-protein kinase 1 (Homo sapiens), sequence (Q9BXA7 whole entry): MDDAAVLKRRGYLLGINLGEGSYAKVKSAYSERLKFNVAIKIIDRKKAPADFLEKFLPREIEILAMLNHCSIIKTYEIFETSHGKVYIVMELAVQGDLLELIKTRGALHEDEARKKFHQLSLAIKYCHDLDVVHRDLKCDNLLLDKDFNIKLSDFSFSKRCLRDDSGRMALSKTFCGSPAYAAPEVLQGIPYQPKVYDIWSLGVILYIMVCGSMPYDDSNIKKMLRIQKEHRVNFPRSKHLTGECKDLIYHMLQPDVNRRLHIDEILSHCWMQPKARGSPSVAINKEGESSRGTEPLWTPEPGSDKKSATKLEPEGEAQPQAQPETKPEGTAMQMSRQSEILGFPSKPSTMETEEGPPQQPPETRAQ
# Mitogen-activated protein kinase kinase kinase 9, sequence (P80192 whole entry, looked up): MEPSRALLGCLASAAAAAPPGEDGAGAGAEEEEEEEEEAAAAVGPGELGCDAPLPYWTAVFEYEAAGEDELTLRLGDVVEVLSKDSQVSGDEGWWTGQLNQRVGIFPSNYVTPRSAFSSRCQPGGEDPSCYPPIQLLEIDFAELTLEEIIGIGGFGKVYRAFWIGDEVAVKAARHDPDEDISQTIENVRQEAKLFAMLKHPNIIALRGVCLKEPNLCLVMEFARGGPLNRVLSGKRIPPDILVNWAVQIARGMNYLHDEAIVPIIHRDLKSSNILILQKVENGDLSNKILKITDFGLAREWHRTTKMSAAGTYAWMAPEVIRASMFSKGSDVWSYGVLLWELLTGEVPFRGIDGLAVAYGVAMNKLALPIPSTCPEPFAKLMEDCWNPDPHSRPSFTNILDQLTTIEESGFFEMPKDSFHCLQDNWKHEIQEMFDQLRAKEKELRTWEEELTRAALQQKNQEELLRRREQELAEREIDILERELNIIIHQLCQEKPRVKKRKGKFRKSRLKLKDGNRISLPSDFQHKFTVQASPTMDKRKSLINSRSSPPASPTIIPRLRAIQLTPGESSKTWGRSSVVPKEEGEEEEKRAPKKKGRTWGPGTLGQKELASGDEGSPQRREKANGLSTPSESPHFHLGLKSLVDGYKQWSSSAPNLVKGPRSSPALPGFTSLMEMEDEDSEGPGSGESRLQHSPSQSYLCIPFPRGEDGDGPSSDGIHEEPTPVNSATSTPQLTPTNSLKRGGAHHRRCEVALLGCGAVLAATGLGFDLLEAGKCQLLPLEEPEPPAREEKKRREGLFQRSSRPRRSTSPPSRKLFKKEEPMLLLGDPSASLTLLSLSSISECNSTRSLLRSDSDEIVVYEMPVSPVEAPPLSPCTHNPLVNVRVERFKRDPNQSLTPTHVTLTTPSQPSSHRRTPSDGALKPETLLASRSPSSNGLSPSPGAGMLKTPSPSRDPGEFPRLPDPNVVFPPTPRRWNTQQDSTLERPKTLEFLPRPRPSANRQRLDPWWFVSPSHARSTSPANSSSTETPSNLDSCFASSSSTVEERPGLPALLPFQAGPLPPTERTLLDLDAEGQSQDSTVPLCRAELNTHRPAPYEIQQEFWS
smiles,measurement,setting,value
COc1cc(Br)cc2[nH]cc(-c3cnc(-c4ccc[nH]4)o3)c12,Activity,[1],7%
same,Activity,MCF7,Tde
COc1cc2c(-c3cnc(-c4ccc[nH]4)o3)c[nH]c2cc1Br,Activity,[2],95%
same,Activity,[3],89%
same,IC50,[4],2.5 µM
same,microsomal CLint at 3 µM,[5],14 µL/min/mg
same,microsomal CLint at 3 µM,[6],47 µL/min/mg
same,Activity,[7],2%
same,Activity,[8],0%
same,Activity,[9],7%
same,Activity,[10],7%
same,IC50,MDA-MB-231,> 30 µM
same,Kd,[11],8.9 µM
same,Kd,[12],4.7 µM
same,Activity,[13],54%
same,IC50,JIMT-1,4.17 µM
same,"survival at 72 h, 1.4 µM",[14],45%
same,Kd,[15],2.9 µM
COc1cc(Br)cc2[nH]cc(-c3oc(-c4ccc[nH]4)nc3I)c12,Activity,[16],21%
